Experimental data: patent US5385908A, “Hindered esters of rapamycin” (American Home Products Corporation, priority 1993, dated 1995)
Where a name gives a salt, the structure may show the parent alone. Read-outs that look alike come from different tables or passages of the source.

Experiments:
pinch skin graft = pinch skin graft survival test procedure; type: in vivo, male BALB/c donors transplanted to male C3H(H-2K) recipients; conditions: 4 mg/kg, intraperitoneally or orally; mean ± S.D.; untreated rejected within 6-7 days
Protocol: (§1) Immunosuppressive activity for representative compounds of this invention was evaluated in an in vitro standard pharmacological test procedure to measure lymphocyte proliferation (LAF) and in three in vivo standard pharmacological test procedures. The pinch skin graft test procedure measures the immunosuppressive activity of the compound tested as well as the ability of the compound tested to inhibit or treat transplant rejection. The adjuvant arthritis standard pharmacological test procedure, which measures the ability of the compound tested to inhibit immune mediated inflammation. The adjuvant arthritis test procedure is a standard pharmacological test procedure for rheumatoid arthritis. Representative compounds of this invention were also evaluated in a heart allograft standard pharmacological test procedure which measures immunosuppressive activity of the compound tested as well as the ability of the compound tested to inhibit or treat transplant rejection. The procedures for these standard pharmacological test procedures are provided below.
Representative compounds of this invention were also evaluated in an in vivo test procedure designed to determine the survival time of pinch skin graft from male BALB/c donors transplanted to male C3 H(H-2K) recipients. The method is adapted from Billingham R. E. and Medawar P. B., J. Exp. Biol. 28:385-402, (1951 ). Briefly, a pinch skin graft from the donor was grafted on the dorsum of the recipient as a allograft, and an isograft was used as control in the same region. The recipients were treated with either varying concentrations of test compounds intraperitoneally or orally. Rapamycin was used as a test control. Untreated recipients serve as rejection control. The graft was monitored daily and observations were recorded until the graft became dry and formed a blackened scab. This was considered as the rejection day. The mean graft survival time (number of days±S.D.) of the drug treatment group was compared with the control group. […] Results are expressed as the mean survival time in days. Untreated (control) pinch skin grafts are usually rejected within 6-7 days. Compounds were tested using a dose of 4 mg/kg.

[1] = test system: immune mediated inflammation (uninjected hind paw); assay: adjuvant arthritis standard pharmacological test procedure; type: in vivo, male inbread Wistar Lewis rats; conditions: for Percent change in adjuvant arthritis versus control: 2 mg/kg oral
Protocol: as §1
The adjuvant arthritis standard pharmacological test procedure measures the ability of test compounds to prevent immune mediated inflammation and inhibit or treat rheumatoid arthritis. The following briefly describes the test procedure used. A group of rats (male inbread Wistar Lewis rats) are pre-treated with the compound to be tested (1 h prior to antigen) and then injected with Freud's Complete Adjuvant (FCA) in the right hind paw to induce arthritis. The rats are then orally dosed on a Monday, Wednesday, Friday schedule from day 0-14 for a total of 7 doses. Both hind paws are measured on days 16, 23, and 30. The difference in paw volume (mL) from day 16 to day 0 is determined and a percent change from control is obtained. […] The right hind paw inflammation, on the other hand, is caused by nonspecific inflammation. Compounds were tested at a dose of 2 mg/kg.

heart allograft = assay: heterotropic heart allograft standard pharmacological test procedure; type: in vivo, BN rat neonate donors, male Lewis rat recipients; conditions: untreated rejected in about 9-10 days
Protocol: as §1
The ability of the compounds of this invention to induce immunosuppression and inhibit or treat transplantation rejection was evaluated in a heterotropic heart allograft standard pharmacological test procedure that emulates transplantation rejection that occurs in humans. The following briefly describes the procedure that was used. […]

[2] = test system: cells from the thymus of normal BALB/c mice (lymphocyte proliferation); assay: comitogen-induced thymocyte proliferation procedure (LAF); type: cell-based; conditions: read-out: LAF IC50
Protocol: as §1
The comitogen-induced thymocyte proliferation procedure (LAF) was used as an in vitro measure of the immunosuppressive effects of representative compounds. Briefly, cells from the thymus of normal BALB/c mice are cultured for 72 hours with PHA and IL-1 and pulsed with tritiated thymidine during the last six hours. Cells are cultured with and without various concentrations of rapamycin, cyclosporin A, or test compound. Cells are harvested and incorporated radioactivity is determined. Inhibition of lymphoproliferation is assessed as percent change in counts per minute from non-drug treated controls. For each compound evaluated, rapamycin was also evaluated for the purpose of comparison. An IC50 was obtained for each test compound as well as for rapamycin. […] The results obtained are provided as an IC50.

Candida albicans = conditions: in vitro and in vivo; cited from earlier work
IgE-like antibodies = conditions: in vivo; cited from earlier work
[3] = test system: experimental allergic encephalomyelitis; conditions: model for multiple sclerosis; cited from earlier work
[4] = Mus musculus, Lymphocyte, PHA and IL-1, 72 hours culture, tritiated thymidine last six hours

Row | SMILES | Skin graft survival (mean survival time) (pinch skin graft) [days] | Percent change in adjuvant arthritis versus control ([1]; day 16) [%] | IC50 [2, 4] [nM] | also measured
1 | CO[C@H]1C[C@@H]2CC[C@@H](C)[C@@](O)(O2)C(=O)C(=O)N2CCCC[C@H]2C(=O)O[C@H]([C@H](C)C[C@@H]2CC[C@@H](OC(=O)C(C)(C)Cc3cccnc3)[C@H](OC)C2)CC(=O)[C@H](C)/C=C(\C)[C@@H](O)[C@@H](OC)C(=O)[C@H](C)C[C@H](C)/C=C/C=C/C=C/1C [Example 2, Rapamycin 42-ester with 2,2-dimethyl-3-(3-pyridinyl) propionic acid] | 13.6 ± 0.6 | -62 | 0.83 | Heart allograft (mean graft survival time) (heart allograft; i.p., 300 μg/day): 29 days; Heart allograft (mean graft survival time) (heart allograft; p.o.): 11.5 days
2 | CO[C@H]1C[C@@H]2CC[C@@H](C)[C@@](O)(O2)C(=O)C(=O)N2CCCC[C@H]2C(=O)O[C@H]([C@H](C)C[C@@H]2CC[C@@H](OC(=O)C(C)(C)Cc3ccncc3)[C@H](OC)C2)CC(=O)[C@H](C)/C=C(\C)[C@@H](O)[C@@H](OC)C(=O)[C@H](C)C[C@H](C)/C=C/C=C/C=C/1C [Example 9, Rapamycin 42-ester with 2,2-dimethyl-3-(4-pyridinyl) propionic acid] | 11.17 ± 1.47 | -73 | 0.84 | –
3 | CO[C@H]1C[C@@H]2CC[C@@H](C)[C@@](O)(O2)C(=O)C(=O)N2CCCC[C@H]2C(=O)O[C@H]([C@H](C)C[C@@H]2CC[C@@H](OC(=O)C3(C)CCN(C)CC3)[C@H](OC)C2)CC(=O)[C@H](C)/C=C(\C)[C@@H](O)[C@@H](OC)C(=O)[C@H](C)C[C@H](C)/C=C/C=C/C=C/1C [Example 12, Rapamycin 42-ester with 1,4-dimethylpiperidine-4-carboxylic acid] | 12.83 ± 1.47 | -75 | 0.58 | –
4 | CO[C@H]1C[C@@H]2CC[C@@H](C)[C@@](O)(O2)C(=O)C(=O)N2CCCC[C@H]2C(=O)O[C@H]([C@H](C)C[C@@H]2CC[C@@H](OC(=O)C(C)(C)CCc3cccnc3)[C@H](OC)C2)CC(=O)[C@H](C)/C=C(\C)[C@@H](O)[C@@H](OC)C(=O)[C@H](C)C[C@H](C)/C=C/C=C/C=C/1C [Example 8, Rapamycin 42-ester with 2,2-dimethyl-4-(3-pyridinyl) butyric acid] | – | -50 | 1.2 | –
5 | CO[C@H]1C[C@@H]2CC[C@@H](C)[C@@](O)(O2)C(=O)C(=O)N2CCCC[C@H]2C(=O)O[C@H]([C@H](C)C[C@@H]2CC[C@@H](O)[C@H](OC)C2)CC(=O)[C@H](C)/C=C(\C)[C@@H](O)[C@@H](OC)C(=O)[C@H](C)C[C@H](C)/C=C/C=C/C=C/1C [rapamycin] | – | – | – | less immune induced inflammation than control rats ([1]; rapamycin treated rats, day 16): 70-90%; antifungal activity (in words) (Candida albicans): antifungal activity, particularly against Candida albicans, both in vitro and in vivo; IC50 ([2]; Mus musculus, Lymphocyte): 0.5 to 1.9 nM; inhibition of formation of IgE-like antibodies (in words) (IgE-like antibodies): effectively inhibited the formation of IgE-like antibodies; effect in experimental allergic encephalomyelitis model (in words) [3]: effective in the experimental allergic encephalomyelitis model
6 | CO[C@H]1C[C@@H]2CC[C@@H](C)[C@@](O)(O2)C(=O)C(=O)N2CCCC[C@H]2C(=O)O[C@H]([C@H](C)C[C@@H]2CC[C@@H](OC(=O)C(C)(C)Cc3ccccn3)[C@H](OC)C2)CC(=O)[C@H](C)/C=C(\C)[C@@H](O)[C@@H](OC)C(=O)[C@H](C)C[C@H](C)/C=C/C=C/C=C/1C [Example 7, Rapamycin 42-ester with 2,2-dimethyl-3-(2-pyridinyl) propionic acid] | – | -78 | 0.6 | –
7 | CO[C@H]1C[C@@H]2CC[C@@H](C)[C@@](O)(O2)C(=O)C(=O)N2CCCC[C@H]2C(=O)O[C@H]([C@H](C)C[C@@H]2CC[C@@H](OC(=O)C3(C)CCCCN3C(=O)c3ccccc3)[C@H](OC)C2)CC(=O)[C@H](C)/C=C(\C)[C@@H](O)[C@@H](OC)C(=O)[C@H](C)C[C@H](C)/C=C/C=C/C=C/1C (stereo partly shown) [Example 13, Rapamycin 42-ester with 1-benzoyl-2-methyl-piperidine-2-carboxylic acid] | – | – | 2.9 | –
8 | CO[C@H]1C[C@@H]2CC[C@@H](C)[C@@](O)(O2)C(=O)C(=O)N2CCCC[C@H]2C(=O)O[C@H]([C@H](C)C[C@@H]2CC[C@@H](OC(=O)C(C)(C)Cc3cccnc3)[C@H](OC)C2)CC(=O)[C@H](C)/C=C(\C)[C@@H](O)[C@@H](OC)C(=O)[C@H](C)C[C@H](C)/C=C/C=C/C=C/1C [Example 3, Rapamycin 42-ester with 2,2-dimethyl-3-(3-pyridinyl) propionic acid hydrochloride salt] | – | – | – | Percent change in adjuvant arthritis versus control ([1]; day 16, hydrochloride salt): -73%; IC50 ([2]; PHA and IL-1, 72 hours culture, tritiated thymidine last six hours, hydrochloride salt): 1.03 nM
9 | CO[C@H]1C[C@@H]2CC[C@@H](C)[C@@](O)(O2)C(=O)C(=O)N2CCCC[C@H]2C(=O)O[C@H]([C@H](C)C[C@@H]2CC[C@@H](OC(=O)C(C)(C)CCCc3cccnc3)[C@H](OC)C2)CC(=O)[C@H](C)/C=C(\C)[C@@H](O)[C@@H](OC)C(=O)[C@H](C)C[C@H](C)/C=C/C=C/C=C/1C [Example 6, Rapamycin 42-ester with 2,2-dimethyl-5-(3-pyridinyl) pentanoic acid] | 12.50 ± 0.55 | -45 | 3 | –
10 | CO[C@H]1C[C@@H]2CC[C@@H](C)[C@@](O)(O2)C(=O)C(=O)N2CCCC[C@H]2C(=O)O[C@H]([C@H](C)C[C@@H]2CC[C@@H](OC(=O)C(C)(C)CCc3ccccn3)[C@H](OC)C2)CC(=O)[C@H](C)/C=C(\C)[C@@H](O)[C@@H](OC)C(=O)[C@H](C)C[C@H](C)/C=C/C=C/C=C/1C [Example 5, Rapamycin 42-ester with 2,2-dimethyl-4-(2-pyridinyl) butyric acid] | – | -75 | 0.58 | –
